Test [1] concerns the target T1, adenosine A2A receptor (Homo sapiens (Human), UniProt P29274). In words: Radioligand binding competition assay, adenosine A2A receptor. To be noted: for inhibition at 0.3 µM: read-out: A2a binding % inh @ 300 nM. The method, then:
Binding of selected compounds to the adenosine A1, A2A, A2B, and A3 receptors was tested using a binding competition assay.
The general protocol for the radioligand binding competition assay was as follows. Competition binding was performed in duplicate in the wells of a 96 well plate (Master Block, Greiner, 786201) containing binding buffer (optimized for each receptor), membrane extracts (amount of protein/well optimized for each receptor), radiotracer (final concentration optimized for each receptor), and test compound. Nonspecific binding was determined by co-incubation with 200-fold excess of cold competitor. The samples were incubated in a final volume of 0.1 mL at 25° C. for 60 minutes and then filtered over filter plates. Filters were washed six times with 0.5 mL of ice-cold washing buffer (optimized for each receptor) and 50 μL of Microscint 20 (Packard) were added on each filter. The filter plates were sealed, incubated 15 min on an orbital shaker and scintillation counted with a TopCount for 30 sec/filter.
For the adenosine A2A receptor radioligand binding assay, the following modifications were made to the general protocol. GF/C filters (Perkin Elmer, 6005174), presoaked in 0.01% Brij for 2 h at room temperature were used. Filters were washed six times with 0.5 mL of ice-cold washing buffer (50 mM Tris pH 7.4) and 50 μL of Microscint 20 (Packard) was added in each well. The plates were then incubated for 15 min on an orbital shaker and then counted with a TopCount™ for 1 min/well.
Another radioligand binding assay was used to evaluate the binding affinity for the adenosine A2A receptor assay was performed in duplicate in the wells of a 384 plate. Assay buffer contained DPBS 500 mM, MgCl2 0.1 mM, and 1% DMSO. Membrane-bead suspension was prepared by mixing 25.98 μL of human adenosine A2A membrane preparation (Perkin Elmer, RBHA2AM400UA) at 33.4 pg/mL, 28 μL of ADA at 20 pg/mL, and 932 μL of SPA beads at 3.33 mg/mL) and incubated the mixture for 20 min at room temperature. Mixed 20 μL of radiotracer (^3H-SCH 58261) at 15 nM to each well containing test articles at various concentrations and centrifuge the plate at 1000 rpm for 1 minute. Added 30 μL of the membrane-bead suspension to each well. Sealed the plates and incubated for 1 hr at room temperature with vigorous mixing on a plate mixer. Plates were read on Microbeta^2 (Perkin Elmer, 2450-0010).
CHO-K1-A3 cell membranes, 1.5 μg/well; a binding buffer comprising HEPES 25 mM pH 7.4, MgCl2 5 mM, CaCl2 1 mM, 0.5% BSA; a wash buffer comprising HEPES 25 mM pH 7.4, MgCl2 5 mM, CaCl2 1 mM; a Unifilter GF/C—treated for 2 h with 0.5% BS; and 0.4 nM of ^125I-AB-MECA as the tracer. The results of the binding assay are shown in Table B1-1 and are shown as percent residual binding at a given concentration. Percent of residual binding means binding of a compound in the presence of competitor normalized to the amount of binding in the absence of competitor. […] For example, compound 1 strongly bound to A2A (30% residual binding at a concentration of 100 nM), A1 (−3% residual binding at 300 nM) and A2B, (−9% residual binding at 300 nM) but weakly bound to A3 (96% residual binding at 300 nM).

Test [2] deals with T1, adenosine A2A receptor. The test can be described thus: cAMP assay in HEK-293 cells expressing human recombinant adenosine A2A receptor. The format is cell-based. To be noted: for inhibition at 0.1 µM: 100 nM compound, read-out: A2a cAMP % inh @ 100 nM. The method, then: The functional activity of compounds was tested using one of the two assays to detect the present of cAMP. Activation of G-protein coupled receptors (such as A2A) results in activation of adenylcyclase which converts ATP into cAMP which is used as a downstream signaling molecule. Therefore, molecules which act as GPCR (or specifically A2A receptor) antagonists cause a decrease in intracellular cAMP concentration.
Both assays used HEK-293 cells expressing human recombinant adenosine A2A receptor were grown prior to the test in media without antibiotic. Assay 1: The cells were detached by gentle flushing with PBS-EDTA (5 mM EDTA), recovered by centrifugation and suspended in assay buffer (KRH: 5 mM KCl, 1.25 mM MgSO4, 124 mM NaCl, 25 mM HEPES, 13.3 mM Glucose, 1.25 mM KH2PO4, 1.45 mM CaCl2, 0.5 g/L BSA, supplemented with Rolipram).
12 μL of cells were mixed with 6 μL of the test compound at increasing concentrations and then incubated for 10 min. Thereafter 6 μL of the reference agonist was added at a final concentration corresponding to the historical EC80. The plates were then incubated for 30 min at room temperature. After addition of the lysis buffer and 1 hour incubation, cAMP concentrations were estimated, according to the manufacturer specification, with the HTRF® kit.
Assay 2: 100 nL of test articles at 100× of final concentration were transferred to assay plate by Echo. Cells were washed twice with 5 mL of PBS […]. After aspirating the PBS and adding 1.5 mL versine, cells were incubated at 37° C. for 2-5 min. After centrifugation, 4 mL of medium was added and adjusted cell density to 5,000 cells/well with stimulation buffer. 10 μL of cells were aliquoted to the assay plate, centrifuged at 1000 rpm for 1 minute, and incubated for 60 minutes at room temperature. 5 μL 4× Eu-cAMP tracer solution and 5 μL 4× Ulight™-anti-cAMP solution were added to assay plate, followed by centrifugation and 60-minute incubation at room temperature. Plates were read on EnVision.
On the technique in general: cAMP levels reflect the balance of adenylyl cyclase and phosphodiesterase activity.

In general, IC50 refers to the concentration that inhibits the measured activity by half.

T1 sequence (P29274 whole entry): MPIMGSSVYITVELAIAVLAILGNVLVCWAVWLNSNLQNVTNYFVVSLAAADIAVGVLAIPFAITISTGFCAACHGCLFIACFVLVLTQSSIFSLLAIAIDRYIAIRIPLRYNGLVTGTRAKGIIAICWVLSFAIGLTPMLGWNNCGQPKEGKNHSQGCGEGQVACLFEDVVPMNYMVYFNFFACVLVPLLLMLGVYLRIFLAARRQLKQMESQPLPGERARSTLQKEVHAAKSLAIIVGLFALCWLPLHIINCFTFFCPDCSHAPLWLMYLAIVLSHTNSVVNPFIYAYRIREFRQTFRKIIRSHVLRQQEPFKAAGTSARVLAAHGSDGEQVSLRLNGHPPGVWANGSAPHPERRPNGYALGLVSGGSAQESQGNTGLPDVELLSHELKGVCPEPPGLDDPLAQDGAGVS

For the molecule `O=c1ccc2cc(-c3ccc4ncccc4c3)c(-c3ccccc3)nc2[nH]1` [1.4, 7-phenyl-6-(quinolin-6-yl)-1,8-naphthyridin-2(1H)-one], the “A2A radioligand binding competition assay % residual binding @ 100 nM” value on adenosine A2A receptor [1] (100 nM compound) is reported as 71%. On adenosine A2A receptor [1] (300 nM compound), the “A2A radioligand binding competition assay % residual binding @ 300 nM” value is listed as 79%. Further, on adenosine A2A receptor [1] (1000 nM compound), the “A2A radioligand binding competition assay % residual binding @ 1000 nM” value was 17%. Besides, the “A2A radioligand binding competition assay % residual binding @ 3000 nM” value on adenosine A2A receptor [1] (3000 nM compound) was 19%. At adenosine A2A receptor [2] (HEK293), the inhibition at 0.1 µM is 82%. `Cc1cc(-c2cc3ccc(=O)[nH]c3nc2-c2ccccc2)cc(C)n1` [Compound No. 1.33, 6-(2,6-dimethylpyridin-4-yl)-7-phenyl-1,8-naphthyridin-2(1H)-one]: the inhibition at 3 µM at adenosine A2A receptor [1] (3000 nM compound, read-out: A2a binding % inh @ 3000 nM) amounted to 30%. Also, on adenosine A2A receptor [2] (HEK293, 300 nM compound, read-out: A2a cAMP % inh @ 300 nM), the inhibition at 0.3 µM turned out to be 60%. Consider `O=c1cc[nH]c2nc(-c3ccncc3)c(-c3ccc4ncccc4c3)cc12` [Compound No. 1.18, 7-(pyridin-4-yl)-6-(quinolin-6-yl)-1,8-naphthyridin-4(1H)-one], for which the “A2A radioligand binding competition assay % residual binding @ 3000 nM” value on adenosine A2A receptor [1] (3000 nM compound) was 38/ND/ND/ND %. Besides, the inhibition at 0.1 µM on adenosine A2A receptor [2] (HEK293) worked out at 61%. Regarding `O=c1ccc2cc(-c3cc(Cl)c4[nH]cnc4c3)c(-c3ccccc3)nc2[nH]1` [Compound No. 1.19, 6-(7-chloro-1H-benzo[d]imidazol-5-yl)-7-phenyl-1,8-naphthyridin-2(1H)-one], the “A2A radioligand binding competition assay % residual binding @ 3000 nM” value on adenosine A2A receptor [1] (3000 nM compound) is listed as 25/ND/ND/ND %. For the same molecule, on adenosine A2A receptor [2] (HEK293), the inhibition at 0.1 µM came out at 74%. Turning to `O=c1cc[nH]c2nc(-c3ccccc3)c(-c3ccc4ocnc4c3)cc12` [Compound No. 1.21, 6-(benzo[d]oxazol-5-yl)-7-phenyl-1,8-naphthyridin-4(1H)-one], the “A2A radioligand binding competition assay % residual binding @ 3000 nM” value at adenosine A2A receptor [1] (3000 nM compound) is 54/ND/ND/ND %. On adenosine A2A receptor [2] (HEK293), the inhibition at 0.1 µM turned out to be 45%. On the same counts, the results for `O=c1cc[nH]c2nc(-c3ccccc3)c(-c3ccc4nccnc4c3)cc12` [Compound No. 1.15, 7-phenyl-6-(quinoxalin-6-yl)-1,8-naphthyridin-4(1H)-one] are 45/ND/ND/ND % and 54%.

As for `COc1cc(-c2cc3c(=O)cc[nH]c3nc2-c2ccccc2)cc2cccnc12` [Compound No. 1.26, 6-(8-methoxyquinolin-6-yl)-7-phenyl-1,8-naphthyridin-4(1H)-one], the inhibition at 0.1 µM on adenosine A2A receptor [2] (HEK293) was 64%. With `O=c1cc[nH]c2nc(-c3ccco3)c(-c3ccc4[nH]cnc4c3)cc12` [Compound No. 1.27, 6-(1H-benzo[d]imidazol-5-yl)-7-(furan-2-yl)-1,8-naphthyridin-4(1H)-one], at adenosine A2A receptor [2] (HEK293), the inhibition at 0.1 µM turned out to be 88%. Turning to `O=c1ccc2cc(-c3cccc(Cl)c3)c(-c3ccccc3)nc2[nH]1` [Compound No. 1.31, 6-(3-chlorophenyl)-7-phenyl-1,8-naphthyridin-2(1H)-one], the inhibition at 0.3 µM on adenosine A2A receptor [1] (300 nM compound) amounted to 0%. Consider `Cc1ccn(-c2nc3[nH]ccc(=O)c3cc2-c2ccc3ncccc3c2)n1` [Compound No. 1.92, 7-(3-methyl-1H-pyrazol-1-yl)-6-(quinolin-6-yl)-1,8-naphthyridin-4(1H)-one], for which the concentration for half-maximal inhibition (IC50) on adenosine A2A receptor [2] (second cAMP table) was found to be 357 nM. Consider `Cc1ccc(-c2nc3[nH]c(=O)ccc3cc2-c2ccc3ncccc3c2)o1` [Compound No. 1.29, 7-(5-methylfuran-2-yl)-6-(quinolin-6-yl)-1,8-naphthyridin-2(1H)-one], for which the inhibition at 0.1 µM on adenosine A2A receptor [2] (HEK293) turned out to be 77%. Consider `O=c1cc[nH]c2nc(-c3ccccc3)c(-c3cccc(Cl)c3)cc12` [Compound No. 1.30, 6-(3-chlorophenyl)-7-phenyl-1,8-naphthyridin-4(1H)-one], for which, at adenosine A2A receptor [1] (300 nM compound), the inhibition at 0.3 µM was found to be 0%. Take `O=c1cc[nH]c2nc(-c3cccnc3)c(-c3ccc4ncccc4c3)cc12` [Compound No. 1.28, 7-(pyridin-3-yl)-6-(quinolin-6-yl)-1,8-naphthyridin-4(1H)-one]: the inhibition at 0.1 µM at adenosine A2A receptor [2] (HEK293) was determined as 46%.

`O=c1ccc2cc(-c3ccc4[nH]c(=O)[nH]c4c3)c(-c3ccccc3)nc2[nH]1` [Compound No. 1.32, 6-(2-oxo-2,3-dihydro-1H-benzo[d]imidazol-5-yl)-7-phenyl-1,8-naphthyridin-2(1H)-one]: the inhibition at 0.3 µM on adenosine A2A receptor [1] (300 nM compound) came out at 0%.

The values are drawn from US10793561B2, “1,8-naphthyridinone compounds and uses thereof” (NUVATION BIO INC., priority 2017, dated 2020).
